The numbers were not newly measured in patent publication US20040110781A1 (priority 2002, published 2004), which cites them from elsewhere.

For this data set, the system named is excitory opioid receptors on sensory neurons.

For `C[C@@H](NC(=O)[C@@H](N)Cc1ccc(O)cc1)C(=O)NCC(=O)N[C@@H](Cc1ccccc1)C(=O)NNC(=O)[C@H](Cc1ccccc1)NC(=O)CNC(=O)[C@@H](C)NC(=O)[C@@H](N)Cc1ccc(O)cc1` [biphalin], the “action on excitory opioid receptor functions” value is on record as “selective antagonists of excitory opioid receptors functions”.
